Reference: ChEMBL document CHEMBL3991601, “The target landscape of clinical kinase drugs” (Science, 2017)
Activity calls are given as the source filed them. For most assays here, no stated cut-off is given here; in the data, actives have a measured Kd and inactives only a lower limit.

Each compound was assayed against Deoxycytidine kinase (Homo sapiens, UniProt P27707).
In the case of `CCCS(=O)(=O)Nc1ccc(F)c(C(=O)c2c[nH]c3ncc(-c4ccc(Cl)cc4)cc23)c1F` [VEMURAFENIB], the Kd is reported as > 30 µM (inactive).
`CC[C@@H]1C(=O)N(C)c2cnc(Nc3ccc(C(=O)N[C@H]4CC[C@H](N5CCN(CC6CC6)CC5)CC4)cc3OC)nc2N1C(C)C` [VOLASERTIB] was tested, and the Kd was > 30 µM (inactive).
In the case of `O=C(Nc1ccc(-c2ccnc(Nc3ccc(N4CCOCC4)cc3)n2)cc1)C1CCCN1` (centres undefined) [XL-019], the Kd is reported as > 30 µM (inactive).

What follows are compounds tested against Mitogen-activated protein kinase kinase kinase 1 (Homo sapiens, UniProt Q13233).
Mitogen-activated protein kinase kinase kinase 1, sequence (Q13233 whole entry): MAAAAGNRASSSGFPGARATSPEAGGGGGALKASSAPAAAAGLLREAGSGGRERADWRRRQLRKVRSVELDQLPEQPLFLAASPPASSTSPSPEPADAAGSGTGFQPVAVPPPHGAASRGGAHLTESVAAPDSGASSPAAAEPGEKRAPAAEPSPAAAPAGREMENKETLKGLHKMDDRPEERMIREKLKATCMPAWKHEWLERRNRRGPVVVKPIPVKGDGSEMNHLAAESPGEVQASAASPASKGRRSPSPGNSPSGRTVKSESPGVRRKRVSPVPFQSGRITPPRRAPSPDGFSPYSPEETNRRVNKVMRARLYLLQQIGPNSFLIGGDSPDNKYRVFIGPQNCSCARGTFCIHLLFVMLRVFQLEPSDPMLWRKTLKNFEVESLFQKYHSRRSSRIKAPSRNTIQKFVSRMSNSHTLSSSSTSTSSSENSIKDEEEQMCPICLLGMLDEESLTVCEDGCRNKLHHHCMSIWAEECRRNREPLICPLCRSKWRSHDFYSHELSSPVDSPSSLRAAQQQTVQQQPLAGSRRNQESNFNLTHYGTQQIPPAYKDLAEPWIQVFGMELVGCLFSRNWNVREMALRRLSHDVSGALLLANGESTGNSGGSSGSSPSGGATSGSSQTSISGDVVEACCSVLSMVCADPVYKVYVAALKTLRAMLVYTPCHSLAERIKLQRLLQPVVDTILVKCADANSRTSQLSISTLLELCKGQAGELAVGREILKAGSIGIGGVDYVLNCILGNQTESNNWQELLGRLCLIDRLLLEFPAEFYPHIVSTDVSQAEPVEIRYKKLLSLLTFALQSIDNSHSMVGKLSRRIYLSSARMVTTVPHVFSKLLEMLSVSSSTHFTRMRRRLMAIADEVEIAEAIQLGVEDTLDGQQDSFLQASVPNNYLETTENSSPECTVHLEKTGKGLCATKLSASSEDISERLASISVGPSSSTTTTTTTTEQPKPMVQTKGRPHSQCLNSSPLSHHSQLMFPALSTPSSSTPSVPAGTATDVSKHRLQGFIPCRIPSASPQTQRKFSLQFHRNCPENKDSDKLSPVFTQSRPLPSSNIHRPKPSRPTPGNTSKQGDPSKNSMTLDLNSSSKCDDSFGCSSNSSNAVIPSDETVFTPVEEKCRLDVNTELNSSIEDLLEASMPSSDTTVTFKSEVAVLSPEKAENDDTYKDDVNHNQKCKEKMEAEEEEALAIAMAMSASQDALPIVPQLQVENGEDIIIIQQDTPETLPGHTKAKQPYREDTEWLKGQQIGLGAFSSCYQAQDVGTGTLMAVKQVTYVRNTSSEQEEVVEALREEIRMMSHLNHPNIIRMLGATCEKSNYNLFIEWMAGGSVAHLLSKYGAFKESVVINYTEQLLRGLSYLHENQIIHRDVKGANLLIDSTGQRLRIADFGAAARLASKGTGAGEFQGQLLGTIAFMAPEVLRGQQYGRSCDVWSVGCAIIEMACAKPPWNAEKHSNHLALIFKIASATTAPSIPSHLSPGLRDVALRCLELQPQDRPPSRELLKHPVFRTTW
`CCCS(=O)(=O)Nc1ccc(F)c(C(=O)c2c[nH]c3ncc(-c4ccc(Cl)cc4)cc23)c1F` [VEMURAFENIB] was tested, and the Kd was > 30 µM (inactive).
`CC[C@@H]1C(=O)N(C)c2cnc(Nc3ccc(C(=O)N[C@H]4CC[C@H](N5CCN(CC6CC6)CC5)CC4)cc3OC)nc2N1C(C)C` [VOLASERTIB] was tested, and the Kd was > 30 µM (inactive).
In the case of `O=C(Nc1ccc(-c2ccnc(Nc3ccc(N4CCOCC4)cc3)n2)cc1)C1CCCN1` (centres undefined) [XL-019], the Kd is reported as > 30 µM (inactive).

Each compound was assayed against Ribosomal protein S6 kinase alpha-4 (Homo sapiens, UniProt O75676).
`CCCS(=O)(=O)Nc1ccc(F)c(C(=O)c2c[nH]c3ncc(-c4ccc(Cl)cc4)cc23)c1F` [VEMURAFENIB] was tested, and the Kd was > 30 µM (inactive).
For `CC[C@@H]1C(=O)N(C)c2cnc(Nc3ccc(C(=O)N[C@H]4CC[C@H](N5CCN(CC6CC6)CC5)CC4)cc3OC)nc2N1C(C)C` [VOLASERTIB], the Kd was > 30 µM (inactive).
In the case of `O=C(Nc1ccc(-c2ccnc(Nc3ccc(N4CCOCC4)cc3)n2)cc1)C1CCCN1` (centres undefined) [XL-019], the Kd is reported as > 30 µM (inactive).

What follows are compounds tested against Non-receptor tyrosine-protein kinase TYK2 (Homo sapiens, UniProt P29597).
Non-receptor tyrosine-protein kinase TYK2, sequence (P29597 whole entry): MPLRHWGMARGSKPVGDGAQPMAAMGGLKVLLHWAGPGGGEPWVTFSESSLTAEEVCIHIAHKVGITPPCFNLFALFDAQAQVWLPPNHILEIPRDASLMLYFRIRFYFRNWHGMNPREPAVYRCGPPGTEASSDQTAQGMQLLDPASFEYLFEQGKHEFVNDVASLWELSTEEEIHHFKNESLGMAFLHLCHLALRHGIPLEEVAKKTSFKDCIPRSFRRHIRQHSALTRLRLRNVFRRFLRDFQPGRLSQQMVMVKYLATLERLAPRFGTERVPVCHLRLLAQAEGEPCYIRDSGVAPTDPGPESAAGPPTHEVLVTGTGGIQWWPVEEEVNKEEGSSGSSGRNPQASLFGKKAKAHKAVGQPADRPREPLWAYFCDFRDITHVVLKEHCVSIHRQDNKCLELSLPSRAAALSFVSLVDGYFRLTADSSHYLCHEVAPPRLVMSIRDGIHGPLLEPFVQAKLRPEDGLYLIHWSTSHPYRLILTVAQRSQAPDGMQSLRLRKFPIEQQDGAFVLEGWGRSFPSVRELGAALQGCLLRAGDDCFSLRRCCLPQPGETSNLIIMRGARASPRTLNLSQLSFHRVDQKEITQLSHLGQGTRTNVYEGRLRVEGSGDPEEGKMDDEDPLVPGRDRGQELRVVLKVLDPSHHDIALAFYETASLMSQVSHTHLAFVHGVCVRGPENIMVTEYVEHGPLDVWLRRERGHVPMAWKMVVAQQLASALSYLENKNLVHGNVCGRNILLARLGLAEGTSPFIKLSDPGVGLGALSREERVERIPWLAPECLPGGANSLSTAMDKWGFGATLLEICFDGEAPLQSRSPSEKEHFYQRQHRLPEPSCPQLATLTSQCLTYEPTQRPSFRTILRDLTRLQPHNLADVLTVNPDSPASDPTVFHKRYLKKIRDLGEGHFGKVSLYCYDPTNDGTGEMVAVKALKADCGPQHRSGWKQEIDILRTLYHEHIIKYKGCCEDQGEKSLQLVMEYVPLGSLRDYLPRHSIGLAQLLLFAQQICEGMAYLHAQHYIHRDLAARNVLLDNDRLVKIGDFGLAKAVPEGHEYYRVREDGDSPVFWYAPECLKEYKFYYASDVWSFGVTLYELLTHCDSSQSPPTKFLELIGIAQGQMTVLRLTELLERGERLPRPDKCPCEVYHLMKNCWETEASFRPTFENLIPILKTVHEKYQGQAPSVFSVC
With `CCCS(=O)(=O)Nc1ccc(F)c(C(=O)c2c[nH]c3ncc(-c4ccc(Cl)cc4)cc23)c1F` [VEMURAFENIB] the Kd was > 30 µM (inactive).
For `CC[C@@H]1C(=O)N(C)c2cnc(Nc3ccc(C(=O)N[C@H]4CC[C@H](N5CCN(CC6CC6)CC5)CC4)cc3OC)nc2N1C(C)C` [VOLASERTIB], the Kd was > 30 µM (inactive).
With `O=C(Nc1ccc(-c2ccnc(Nc3ccc(N4CCOCC4)cc3)n2)cc1)C1CCCN1` (centres undefined) [XL-019] the Kd was > 30 µM (inactive).

What follows are compounds tested against Atypical kinase COQ8A, mitochondrial (Homo sapiens, UniProt Q8NI60).
With `CCCS(=O)(=O)Nc1ccc(F)c(C(=O)c2c[nH]c3ncc(-c4ccc(Cl)cc4)cc23)c1F` [VEMURAFENIB] the Kd was > 30 µM (inactive).
`CC[C@@H]1C(=O)N(C)c2cnc(Nc3ccc(C(=O)N[C@H]4CC[C@H](N5CCN(CC6CC6)CC5)CC4)cc3OC)nc2N1C(C)C` [VOLASERTIB] was tested, and the Kd was > 30 µM (inactive).
For `O=C(Nc1ccc(-c2ccnc(Nc3ccc(N4CCOCC4)cc3)n2)cc1)C1CCCN1` (centres undefined) [XL-019], the Kd was > 30 µM (inactive).

The compounds below were run against T1, Mitogen-activated protein kinase kinase kinase 2 (Homo sapiens, UniProt Q9Y2U5).
T1 sequence (Q9Y2U5 whole entry): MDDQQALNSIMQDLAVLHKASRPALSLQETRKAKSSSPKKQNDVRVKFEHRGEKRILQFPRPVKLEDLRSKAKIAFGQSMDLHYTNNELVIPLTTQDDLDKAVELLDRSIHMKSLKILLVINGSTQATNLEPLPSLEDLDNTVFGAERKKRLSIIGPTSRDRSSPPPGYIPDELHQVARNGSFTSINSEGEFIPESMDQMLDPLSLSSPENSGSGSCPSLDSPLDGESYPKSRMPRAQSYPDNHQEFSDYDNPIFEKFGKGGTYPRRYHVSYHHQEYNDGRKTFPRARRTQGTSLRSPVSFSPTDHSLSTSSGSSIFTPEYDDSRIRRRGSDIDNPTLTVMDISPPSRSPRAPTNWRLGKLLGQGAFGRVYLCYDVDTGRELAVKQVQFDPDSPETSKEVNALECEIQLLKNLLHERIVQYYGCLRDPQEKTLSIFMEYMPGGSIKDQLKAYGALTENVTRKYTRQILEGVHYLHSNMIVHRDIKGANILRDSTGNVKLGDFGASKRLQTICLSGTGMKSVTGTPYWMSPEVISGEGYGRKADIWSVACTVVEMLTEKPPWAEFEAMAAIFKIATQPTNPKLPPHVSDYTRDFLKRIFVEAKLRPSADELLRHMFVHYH
`CCCS(=O)(=O)Nc1ccc(F)c(C(=O)c2c[nH]c3ncc(-c4ccc(Cl)cc4)cc23)c1F` [VEMURAFENIB] was tested, and the Kd was > 30 µM (inactive).
In the case of `CC[C@@H]1C(=O)N(C)c2cnc(Nc3ccc(C(=O)N[C@H]4CC[C@H](N5CCN(CC6CC6)CC5)CC4)cc3OC)nc2N1C(C)C` [VOLASERTIB], the Kd is reported as > 30 µM (inactive).
For `O=C(Nc1ccc(-c2ccnc(Nc3ccc(N4CCOCC4)cc3)n2)cc1)C1CCCN1` (centres undefined) [XL-019], the Kd was > 30 µM (inactive).

What follows are compounds tested against MAP kinase-activated protein kinase 2 (Homo sapiens, UniProt P49137).
MAP kinase-activated protein kinase 2, sequence (P49137 whole entry): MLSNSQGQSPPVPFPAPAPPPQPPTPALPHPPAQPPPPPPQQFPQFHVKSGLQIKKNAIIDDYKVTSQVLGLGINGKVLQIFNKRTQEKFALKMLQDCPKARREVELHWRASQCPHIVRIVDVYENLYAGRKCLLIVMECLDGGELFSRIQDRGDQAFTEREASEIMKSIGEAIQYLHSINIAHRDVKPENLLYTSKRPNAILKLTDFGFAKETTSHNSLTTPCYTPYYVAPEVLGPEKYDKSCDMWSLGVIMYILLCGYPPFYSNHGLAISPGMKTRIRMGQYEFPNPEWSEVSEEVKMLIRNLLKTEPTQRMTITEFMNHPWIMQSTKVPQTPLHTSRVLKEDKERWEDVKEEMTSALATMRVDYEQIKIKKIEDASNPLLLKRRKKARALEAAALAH
With `CCCS(=O)(=O)Nc1ccc(F)c(C(=O)c2c[nH]c3ncc(-c4ccc(Cl)cc4)cc23)c1F` [VEMURAFENIB] the Kd was > 30 µM (inactive).
With `CC[C@@H]1C(=O)N(C)c2cnc(Nc3ccc(C(=O)N[C@H]4CC[C@H](N5CCN(CC6CC6)CC5)CC4)cc3OC)nc2N1C(C)C` [VOLASERTIB] the Kd was > 30 µM (inactive).
With `O=C(Nc1ccc(-c2ccnc(Nc3ccc(N4CCOCC4)cc3)n2)cc1)C1CCCN1` (centres undefined) [XL-019] the Kd was 0.354 µM (active).

Each compound was assayed against T2, ATP-dependent 6-phosphofructokinase, platelet type (Homo sapiens, UniProt Q01813).
T2 sequence (Q01813 whole entry): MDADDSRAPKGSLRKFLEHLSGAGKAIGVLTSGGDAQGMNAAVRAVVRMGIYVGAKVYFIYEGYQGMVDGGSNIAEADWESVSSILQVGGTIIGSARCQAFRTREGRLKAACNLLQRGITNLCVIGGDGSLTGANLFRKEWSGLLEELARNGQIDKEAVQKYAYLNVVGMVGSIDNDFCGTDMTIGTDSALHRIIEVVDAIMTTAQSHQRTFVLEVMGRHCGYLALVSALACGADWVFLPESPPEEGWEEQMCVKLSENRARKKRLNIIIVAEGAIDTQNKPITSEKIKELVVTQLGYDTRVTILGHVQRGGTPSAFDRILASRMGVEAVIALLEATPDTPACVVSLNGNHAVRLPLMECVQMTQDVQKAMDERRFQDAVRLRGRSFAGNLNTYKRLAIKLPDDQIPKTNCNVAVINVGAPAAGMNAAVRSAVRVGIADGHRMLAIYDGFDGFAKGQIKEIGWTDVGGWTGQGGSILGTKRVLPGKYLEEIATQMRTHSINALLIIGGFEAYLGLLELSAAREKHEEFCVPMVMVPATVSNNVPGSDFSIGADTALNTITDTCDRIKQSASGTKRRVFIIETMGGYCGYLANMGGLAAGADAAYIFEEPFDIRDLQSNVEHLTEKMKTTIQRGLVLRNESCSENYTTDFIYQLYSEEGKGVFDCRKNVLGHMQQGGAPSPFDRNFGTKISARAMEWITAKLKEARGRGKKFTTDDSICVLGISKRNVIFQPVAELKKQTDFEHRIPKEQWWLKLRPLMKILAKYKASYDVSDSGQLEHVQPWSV
With `CCCS(=O)(=O)Nc1ccc(F)c(C(=O)c2c[nH]c3ncc(-c4ccc(Cl)cc4)cc23)c1F` [VEMURAFENIB] the Kd was > 30 µM (inactive).
With `CC[C@@H]1C(=O)N(C)c2cnc(Nc3ccc(C(=O)N[C@H]4CC[C@H](N5CCN(CC6CC6)CC5)CC4)cc3OC)nc2N1C(C)C` [VOLASERTIB] the Kd was > 30 µM (inactive).
`O=C(Nc1ccc(-c2ccnc(Nc3ccc(N4CCOCC4)cc3)n2)cc1)C1CCCN1` (centres undefined) [XL-019] was tested, and the Kd was > 30 µM (inactive).

These compounds were tested against Tyrosine-protein kinase Lyn (Homo sapiens, UniProt P07948).
In the case of `CCCS(=O)(=O)Nc1ccc(F)c(C(=O)c2c[nH]c3ncc(-c4ccc(Cl)cc4)cc23)c1F` [VEMURAFENIB], the Kd is reported as > 30 µM (inactive).
In the case of `CC[C@@H]1C(=O)N(C)c2cnc(Nc3ccc(C(=O)N[C@H]4CC[C@H](N5CCN(CC6CC6)CC5)CC4)cc3OC)nc2N1C(C)C` [VOLASERTIB], the Kd is reported as > 30 µM (inactive).
With `O=C(Nc1ccc(-c2ccnc(Nc3ccc(N4CCOCC4)cc3)n2)cc1)C1CCCN1` (centres undefined) [XL-019] the Kd was > 30 µM (inactive).

Each compound was assayed against STE20-like serine/threonine-protein kinase (Homo sapiens, UniProt Q9H2G2).
STE20-like serine/threonine-protein kinase, sequence (Q9H2G2 whole entry): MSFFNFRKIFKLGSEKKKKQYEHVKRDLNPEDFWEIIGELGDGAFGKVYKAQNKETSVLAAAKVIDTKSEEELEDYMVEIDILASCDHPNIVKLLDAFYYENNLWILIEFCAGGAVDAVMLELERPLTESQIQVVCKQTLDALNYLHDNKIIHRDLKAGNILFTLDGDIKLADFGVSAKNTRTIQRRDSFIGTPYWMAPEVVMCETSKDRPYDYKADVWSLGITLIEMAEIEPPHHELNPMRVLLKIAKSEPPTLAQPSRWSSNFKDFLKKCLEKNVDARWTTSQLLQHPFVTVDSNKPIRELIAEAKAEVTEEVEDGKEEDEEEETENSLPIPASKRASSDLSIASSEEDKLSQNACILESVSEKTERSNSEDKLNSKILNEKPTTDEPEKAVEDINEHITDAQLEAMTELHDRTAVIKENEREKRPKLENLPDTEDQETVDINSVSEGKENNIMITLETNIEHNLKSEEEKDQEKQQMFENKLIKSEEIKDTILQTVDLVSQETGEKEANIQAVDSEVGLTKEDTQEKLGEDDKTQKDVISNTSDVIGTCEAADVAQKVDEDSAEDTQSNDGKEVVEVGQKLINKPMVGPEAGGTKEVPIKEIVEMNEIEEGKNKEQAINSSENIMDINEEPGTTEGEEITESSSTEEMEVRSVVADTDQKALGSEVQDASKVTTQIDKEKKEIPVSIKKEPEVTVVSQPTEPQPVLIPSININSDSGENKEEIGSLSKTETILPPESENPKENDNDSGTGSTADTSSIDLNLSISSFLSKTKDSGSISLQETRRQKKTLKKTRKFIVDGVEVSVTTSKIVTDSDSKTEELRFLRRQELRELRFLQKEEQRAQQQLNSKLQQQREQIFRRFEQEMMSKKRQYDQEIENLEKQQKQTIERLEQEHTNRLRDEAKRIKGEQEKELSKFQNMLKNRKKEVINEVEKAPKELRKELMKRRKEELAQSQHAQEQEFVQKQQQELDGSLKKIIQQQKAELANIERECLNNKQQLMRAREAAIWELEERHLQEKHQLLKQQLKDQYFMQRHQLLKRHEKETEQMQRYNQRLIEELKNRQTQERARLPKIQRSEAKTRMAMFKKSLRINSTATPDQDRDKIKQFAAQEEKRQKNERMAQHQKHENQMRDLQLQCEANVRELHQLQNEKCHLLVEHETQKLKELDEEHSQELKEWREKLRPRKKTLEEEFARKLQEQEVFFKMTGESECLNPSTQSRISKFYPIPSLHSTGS
With `CCCS(=O)(=O)Nc1ccc(F)c(C(=O)c2c[nH]c3ncc(-c4ccc(Cl)cc4)cc23)c1F` [VEMURAFENIB] the Kd was > 30 µM (inactive).
For `CC[C@@H]1C(=O)N(C)c2cnc(Nc3ccc(C(=O)N[C@H]4CC[C@H](N5CCN(CC6CC6)CC5)CC4)cc3OC)nc2N1C(C)C` [VOLASERTIB], the Kd was > 30 µM (inactive).
In the case of `O=C(Nc1ccc(-c2ccnc(Nc3ccc(N4CCOCC4)cc3)n2)cc1)C1CCCN1` (centres undefined) [XL-019], the Kd is reported as > 30 µM (inactive).

The compounds below were run against Tyrosine-protein kinase Fer (Homo sapiens, UniProt P16591).
`CCCS(=O)(=O)Nc1ccc(F)c(C(=O)c2c[nH]c3ncc(-c4ccc(Cl)cc4)cc23)c1F` [VEMURAFENIB] was tested, and the Kd was > 30 µM (inactive).
For `CC[C@@H]1C(=O)N(C)c2cnc(Nc3ccc(C(=O)N[C@H]4CC[C@H](N5CCN(CC6CC6)CC5)CC4)cc3OC)nc2N1C(C)C` [VOLASERTIB], the Kd was > 30 µM (inactive).
For `O=C(Nc1ccc(-c2ccnc(Nc3ccc(N4CCOCC4)cc3)n2)cc1)C1CCCN1` (centres undefined) [XL-019], the Kd was > 30 µM (inactive).

The compounds below were run against T3, Serine/threonine-protein kinase TAO1 (Homo sapiens, UniProt Q7L7X3).
T3 sequence (Q7L7X3 whole entry): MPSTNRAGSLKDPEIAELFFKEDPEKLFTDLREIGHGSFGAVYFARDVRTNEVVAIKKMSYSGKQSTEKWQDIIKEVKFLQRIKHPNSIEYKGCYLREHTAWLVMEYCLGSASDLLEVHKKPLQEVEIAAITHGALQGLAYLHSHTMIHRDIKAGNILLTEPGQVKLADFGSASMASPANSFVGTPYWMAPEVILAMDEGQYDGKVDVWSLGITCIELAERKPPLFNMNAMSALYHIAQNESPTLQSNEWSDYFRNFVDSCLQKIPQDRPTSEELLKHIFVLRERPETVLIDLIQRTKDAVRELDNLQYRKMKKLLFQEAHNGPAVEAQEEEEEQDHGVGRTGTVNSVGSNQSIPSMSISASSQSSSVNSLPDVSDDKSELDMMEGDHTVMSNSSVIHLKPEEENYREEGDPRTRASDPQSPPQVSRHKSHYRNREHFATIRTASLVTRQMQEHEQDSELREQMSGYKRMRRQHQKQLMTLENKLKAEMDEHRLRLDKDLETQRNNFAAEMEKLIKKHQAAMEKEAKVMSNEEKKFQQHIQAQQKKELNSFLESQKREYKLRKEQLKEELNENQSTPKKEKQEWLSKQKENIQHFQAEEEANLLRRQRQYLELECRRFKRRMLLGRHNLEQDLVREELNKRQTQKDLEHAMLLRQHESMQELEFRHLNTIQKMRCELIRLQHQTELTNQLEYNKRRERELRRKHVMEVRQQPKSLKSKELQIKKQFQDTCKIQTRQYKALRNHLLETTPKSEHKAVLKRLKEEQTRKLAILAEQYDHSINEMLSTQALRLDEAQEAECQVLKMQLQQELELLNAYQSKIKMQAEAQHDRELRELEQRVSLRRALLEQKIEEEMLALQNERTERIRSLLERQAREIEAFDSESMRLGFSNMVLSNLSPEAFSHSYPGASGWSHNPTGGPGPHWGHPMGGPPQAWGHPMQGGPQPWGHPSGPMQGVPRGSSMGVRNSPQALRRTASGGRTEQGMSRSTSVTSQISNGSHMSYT
With `CCCS(=O)(=O)Nc1ccc(F)c(C(=O)c2c[nH]c3ncc(-c4ccc(Cl)cc4)cc23)c1F` [VEMURAFENIB] the Kd was > 30 µM (inactive).
`CC[C@@H]1C(=O)N(C)c2cnc(Nc3ccc(C(=O)N[C@H]4CC[C@H](N5CCN(CC6CC6)CC5)CC4)cc3OC)nc2N1C(C)C` [VOLASERTIB] was tested, and the Kd was > 30 µM (inactive).
In the case of `O=C(Nc1ccc(-c2ccnc(Nc3ccc(N4CCOCC4)cc3)n2)cc1)C1CCCN1` (centres undefined) [XL-019], the Kd is reported as > 30 µM (inactive).

These compounds were tested against ATP-dependent RNA helicase DDX3X (Homo sapiens, UniProt O00571).
ATP-dependent RNA helicase DDX3X, sequence (O00571 whole entry): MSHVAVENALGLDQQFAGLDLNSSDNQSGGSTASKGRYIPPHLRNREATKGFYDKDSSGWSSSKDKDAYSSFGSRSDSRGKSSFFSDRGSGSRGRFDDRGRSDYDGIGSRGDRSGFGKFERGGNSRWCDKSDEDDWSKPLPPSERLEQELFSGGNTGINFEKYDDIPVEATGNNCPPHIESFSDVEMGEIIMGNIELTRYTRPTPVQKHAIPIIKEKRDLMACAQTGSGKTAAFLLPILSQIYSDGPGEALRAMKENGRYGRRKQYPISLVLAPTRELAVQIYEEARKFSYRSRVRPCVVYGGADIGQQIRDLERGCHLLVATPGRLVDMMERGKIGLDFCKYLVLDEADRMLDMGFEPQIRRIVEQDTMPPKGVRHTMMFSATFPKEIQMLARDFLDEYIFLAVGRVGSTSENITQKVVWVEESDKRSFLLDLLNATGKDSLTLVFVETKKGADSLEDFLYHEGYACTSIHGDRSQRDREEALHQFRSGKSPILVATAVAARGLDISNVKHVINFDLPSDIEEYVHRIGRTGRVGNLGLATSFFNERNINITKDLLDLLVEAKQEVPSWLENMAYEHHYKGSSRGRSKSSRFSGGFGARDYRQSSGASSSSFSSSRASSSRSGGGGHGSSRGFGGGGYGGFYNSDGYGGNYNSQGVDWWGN
For `CCCS(=O)(=O)Nc1ccc(F)c(C(=O)c2c[nH]c3ncc(-c4ccc(Cl)cc4)cc23)c1F` [VEMURAFENIB], the Kd was > 30 µM (inactive).
In the case of `CC[C@@H]1C(=O)N(C)c2cnc(Nc3ccc(C(=O)N[C@H]4CC[C@H](N5CCN(CC6CC6)CC5)CC4)cc3OC)nc2N1C(C)C` [VOLASERTIB], the Kd is reported as > 30 µM (inactive).
`O=C(Nc1ccc(-c2ccnc(Nc3ccc(N4CCOCC4)cc3)n2)cc1)C1CCCN1` (centres undefined) [XL-019] was tested, and the Kd was > 30 µM (inactive).
